How the values were obtained:
[1] = refractive index (Na D-line) (dimensionless); xn = mol fraction of the nth substance listed; conditions: 101 kPa, Liquid, Standard Abbe refractometry
[2] = xn = mol fraction of the nth substance listed; conditions: 101 kPa, Liquid; for viscosity: Capillary tube (Ostwald / Ubbelohde) method
[3] = excess molar enthalpy (molar enthalpy of mixing); xn = mol fraction of the nth substance listed; conditions: 101 kPa, Liquid

C[S+](C)[O-] [dimethyl sulfoxide] + CCCO
Conditions | excess molar enthalpy [kcal/mol] | mass density [kg/m3] | refractive index | viscosity [mPa·s]
[1], 288.15 K, x1 = 0.0533 | – | – | 1.3942 | –
[1], 288.15 K, x1 = 0.0938 | – | – | 1.3979 | –
[1], 288.15 K, x1 = 0.1708 | – | – | 1.405 | –
[1], 288.15 K, x1 = 0.2592 | – | – | 1.4132 | –
[1], 288.15 K, x1 = 0.346 | – | – | 1.4212 | –
[1], 288.15 K, x1 = 0.4294 | – | – | 1.429 | –
[1], 288.15 K, x1 = 0.5115 | – | – | 1.4367 | –
[1], 288.15 K, x1 = 0.5981 | – | – | 1.4449 | –
[1], 288.15 K, x1 = 0.6853 | – | – | 1.4532 | –
[1], 288.15 K, x1 = 0.7596 | – | – | 1.4603 | –
[1], 288.15 K, x1 = 0.8438 | – | – | 1.4685 | –
[1], 288.15 K, x1 = 0.9368 | – | – | 1.4774 | –
[1], 298.15 K, x1 = 0.0554 | – | – | 1.3889 | –
[1], 298.15 K, x1 = 0.1366 | – | – | 1.3966 | –
[1], 298.15 K, x1 = 0.22 | – | – | 1.4045 | –
[1], 298.15 K, x1 = 0.2987 | – | – | 1.4119 | –
[1], 298.15 K, x1 = 0.4289 | – | – | 1.4239 | –
[1], 298.15 K, x1 = 0.5022 | – | – | 1.4307 | –
[1], 298.15 K, x1 = 0.5992 | – | – | 1.4398 | –
[1], 298.15 K, x1 = 0.677 | – | – | 1.4472 | –
[1], 298.15 K, x1 = 0.7656 | – | – | 1.4558 | –
[1], 298.15 K, x1 = 0.8358 | – | – | 1.4627 | –
[1], 298.15 K, x1 = 0.9181 | – | – | 1.4705 | –
[1], 298.15 K, x1 = 0.9646 | – | – | 1.4747 | –
[1], 308.15 K, x1 = 0.0537 | – | – | 1.3843 | –
[1], 308.15 K, x1 = 0.1336 | – | – | 1.3916 | –
[1], 308.15 K, x1 = 0.2147 | – | – | 1.3991 | –
[1], 308.15 K, x1 = 0.2987 | – | – | 1.407 | –
[1], 308.15 K, x1 = 0.3876 | – | – | 1.4152 | –
[1], 308.15 K, x1 = 0.4707 | – | – | 1.4229 | –
[1], 308.15 K, x1 = 0.5552 | – | – | 1.4308 | –
[1], 308.15 K, x1 = 0.6418 | – | – | 1.4389 | –
[1], 308.15 K, x1 = 0.7191 | – | – | 1.4462 | –
[1], 308.15 K, x1 = 0.7998 | – | – | 1.454 | –
[1], 308.15 K, x1 = 0.877 | – | – | 1.4614 | –
[1], 308.15 K, x1 = 0.965 | – | – | 1.4698 | –
[2], 288.15 K, x1 = 0.0533 | – | 822.73 | – | 2.251
[2], 288.15 K, x1 = 0.0938 | – | 834.33 | – | 2.1
[2], 288.15 K, x1 = 0.1708 | – | 856.51 | – | 1.937
[2], 288.15 K, x1 = 0.2592 | – | 882.15 | – | 1.835
[2], 288.15 K, x1 = 0.346 | – | 907.54 | – | 1.81
[2], 288.15 K, x1 = 0.4294 | – | 932.12 | – | 1.819
[2], 288.15 K, x1 = 0.5115 | – | 956.49 | – | 1.864
[2], 288.15 K, x1 = 0.5981 | – | 982.38 | – | 1.927
[2], 288.15 K, x1 = 0.6853 | – | 1008.66 | – | 1.999
[2], 288.15 K, x1 = 0.7596 | – | 1031.23 | – | 2.086
[2], 288.15 K, x1 = 0.8438 | – | 1057.01 | – | 2.206
[2], 288.15 K, x1 = 0.9368 | – | 1085.71 | – | 2.348
[2], 298.15 K, x1 = 0.0554 | – | 815.18 | – | 1.799
[2], 298.15 K, x1 = 0.1366 | – | 838.3 | – | 1.635
[2], 298.15 K, x1 = 0.22 | – | 862.21 | – | 1.522
[2], 298.15 K, x1 = 0.2987 | – | 884.95 | – | 1.486
[2], 298.15 K, x1 = 0.4289 | – | 922.94 | – | 1.487
[2], 298.15 K, x1 = 0.5022 | – | 944.55 | – | 1.517
[2], 298.15 K, x1 = 0.5992 | – | 973.37 | – | 1.575
[2], 298.15 K, x1 = 0.677 | – | 996.69 | – | 1.633
[2], 298.15 K, x1 = 0.7656 | – | 1023.43 | – | 1.71
[2], 298.15 K, x1 = 0.8358 | – | 1044.81 | – | 1.786
[2], 298.15 K, x1 = 0.9181 | – | 1070.04 | – | 1.881
[2], 298.15 K, x1 = 0.9646 | – | 1084.38 | – | 1.942
[2], 308.15 K, x1 = 0.0537 | – | 806.44 | – | 1.439
[2], 308.15 K, x1 = 0.1336 | – | 828.96 | – | 1.319
[2], 308.15 K, x1 = 0.2147 | – | 852.03 | – | 1.264
[2], 308.15 K, x1 = 0.2987 | – | 876.11 | – | 1.237
[2], 308.15 K, x1 = 0.3876 | – | 901.81 | – | 1.243
[2], 308.15 K, x1 = 0.4707 | – | 926.08 | – | 1.265
[2], 308.15 K, x1 = 0.5552 | – | 950.93 | – | 1.296
[2], 308.15 K, x1 = 0.6418 | – | 976.65 | – | 1.343
[2], 308.15 K, x1 = 0.7191 | – | 999.78 | – | 1.401
[2], 308.15 K, x1 = 0.7998 | – | 1024.11 | – | 1.474
[2], 308.15 K, x1 = 0.877 | – | 1047.58 | – | 1.545
[2], 308.15 K, x1 = 0.965 | – | 1074.53 | – | 1.621
[3], 288.15 K, x1 = 0.042 | 0.0514 | – | – | –
[3], 288.15 K, x1 = 0.0807 | 0.0896 | – | – | –
[3], 288.15 K, x1 = 0.1163 | 0.118 | – | – | –
[3], 288.15 K, x1 = 0.1493 | 0.139 | – | – | –
[3], 288.15 K, x1 = 0.2084 | 0.168 | – | – | –
[3], 288.15 K, x1 = 0.2598 | 0.182 | – | – | –
[3], 288.15 K, x1 = 0.3449 | 0.196 | – | – | –
[3], 288.15 K, x1 = 0.4124 | 0.196 | – | – | –
[3], 288.15 K, x1 = 0.5129 | 0.189 | – | – | –
[3], 288.15 K, x1 = 0.6124 | 0.173 | – | – | –
[3], 288.15 K, x1 = 0.6781 | 0.158 | – | – | –
[3], 288.15 K, x1 = 0.7595 | 0.128 | – | – | –
[3], 288.15 K, x1 = 0.8456 | 0.093 | – | – | –
[3], 288.15 K, x1 = 0.8634 | 0.0822 | – | – | –
[3], 288.15 K, x1 = 0.8939 | 0.0676 | – | – | –
[3], 288.15 K, x1 = 0.9267 | 0.0488 | – | – | –
[3], 288.15 K, x1 = 0.9619 | 0.0265 | – | – | –
[3], 298.15 K, x1 = 0.0422 | 0.0495 | – | – | –
[3], 298.15 K, x1 = 0.0809 | 0.0875 | – | – | –
[3], 298.15 K, x1 = 0.1166 | 0.117 | – | – | –
[3], 298.15 K, x1 = 0.1497 | 0.141 | – | – | –
[3], 298.15 K, x1 = 0.2089 | 0.167 | – | – | –
[3], 298.15 K, x1 = 0.2604 | 0.182 | – | – | –
[3], 298.15 K, x1 = 0.3456 | 0.199 | – | – | –
[3], 298.15 K, x1 = 0.4131 | 0.201 | – | – | –
[3], 298.15 K, x1 = 0.5137 | 0.194 | – | – | –
[3], 298.15 K, x1 = 0.6131 | 0.175 | – | – | –
[3], 298.15 K, x1 = 0.6787 | 0.16 | – | – | –
[3], 298.15 K, x1 = 0.7602 | 0.134 | – | – | –
[3], 298.15 K, x1 = 0.8086 | 0.111 | – | – | –
[3], 298.15 K, x1 = 0.8638 | 0.0853 | – | – | –
[3], 298.15 K, x1 = 0.8942 | 0.0674 | – | – | –
[3], 298.15 K, x1 = 0.9269 | 0.0492 | – | – | –
[3], 298.15 K, x1 = 0.9621 | 0.0265 | – | – | –
[3], 308.15 K, x1 = 0.0421 | 0.0507 | – | – | –
[3], 308.15 K, x1 = 0.0808 | 0.0872 | – | – | –
[3], 308.15 K, x1 = 0.1234 | 0.122 | – | – | –
[3], 308.15 K, x1 = 0.1495 | 0.14 | – | – | –
[3], 308.15 K, x1 = 0.2087 | 0.167 | – | – | –
[3], 308.15 K, x1 = 0.2601 | 0.183 | – | – | –
[3], 308.15 K, x1 = 0.3454 | 0.198 | – | – | –
[3], 308.15 K, x1 = 0.4128 | 0.199 | – | – | –
[3], 308.15 K, x1 = 0.5134 | 0.193 | – | – | –
[3], 308.15 K, x1 = 0.612 | 0.175 | – | – | –
[3], 308.15 K, x1 = 0.6784 | 0.16 | – | – | –
[3], 308.15 K, x1 = 0.7599 | 0.129 | – | – | –
[3], 308.15 K, x1 = 0.8084 | 0.111 | – | – | –
[3], 308.15 K, x1 = 0.8636 | 0.082 | – | – | –
[3], 308.15 K, x1 = 0.8941 | 0.0698 | – | – | –
[3], 308.15 K, x1 = 0.9268 | 0.049 | – | – | –
[3], 308.15 K, x1 = 0.962 | 0.027 | – | – | –

From the NIST ThermoML archive (doi:10.1021/je0601513)
